Experimental data as given in patent publication US8022235B2, “Compositions of phospholipid ether boronic acids and esters and methods for their synthesis and use” (Cellectar, Inc., priority 2007, dated 2011).

Legend:
TRAMP prostate = test: Imaging and tissue distribution, tumor model; assay type: in vivo, Spontaneous mouse; settings: Adenocarcinoma
Blood plasma kinetics = test: Blood plasma kinetics; design: species or system rats; settings: rat, in vivo
Mammary SCC and ACC = test: Imaging and tissue distribution, tumor model; therapeutic responses at imaging doses; assay type: in vivo, Apc^Min/+mouse; settings: Squamous cell carcinoma and Adenocarcinoma
Text: (§1) During the course of mouse tumor uptake and retention studies with “imaging” doses (15-20 μCi/20 g mouse) of ^125I-labeled NM404, several apparent therapeutic responses have been observed (unpublished results). […] Some of these animals also lost all hair above larger mammary tumors at around 8 days after injection. Moreover, these mice also get intestinal tumors and usually suffer from intestinal bleeding resulting in severe anemia, which renders their feet white. […] Another compelling example of tumor regression is illustrated in FIG. 13. Two litter mates each received SCC1 and SCC6 xenografts in their left and right flanks, respectively. One mouse received a single injection of ^125I-NM404 (20 μCi). […] These coincidental findings were reconfirmed in two separate age-matched groups each involving more than 6 mice.

Cervical = test: Imaging and tissue distribution, tumor model; assay type: in vivo, Spontaneous Mouse; settings: Adenocarcinoma
Mammary MCF-7 = test: Imaging and tissue distribution, tumor model; assay type: in vivo, Rat; settings: Adenocarcinoma
[1] = test system: non-small cell lung cancer (NSCLC); test: Initial human pharmacokinetic evaluation, planar gamma-camera scintigraphy; assay type: in vivo; settings: relative to NM324
Text: FIG. 6A-C images of lung cancer patient, posterior whole body planar nuclear medicine image (A) 4 days after iv administration of ^131I-NM404 (0.8 mCi) to a patient with non small cell lung cancer (6 cm dia., arrow). Lung tumor is easily detected in corresponding axial (B) and coronal (C) computed tomography (CT) scans;
In preparation for human clinical trials, unlabeled NM404 was subjected to independent (University of Buffalo Toxicology Research Center) acute toxicity evaluation at 1200 times the anticipated imaging mass dose in rats and rabbits. […] Due to its selective tumor uptake and retention properties in a variety of rodent tumor models and subsequent excellent safety profile in rats and rabbits, NM404 was selected to undergo initial human pharmacokinetic evaluation in non-small cell lung cancer (NSCLC) patients. Patients underwent planar gamma-camera scintigraphy after receiving an injection of ^131I-NM404 (<1 mCi).

Lung A-549 (NSCLC) = test: Imaging and tissue distribution, tumor model; assay type: in vivo, SCID Mouse; settings: Adenocarcinoma
[2] = test system: human PC-3 prostate tumor xenografts; test: Scintigraphy, microPET and tissue distribution in PC-3 tumor model; assay type: in vivo, SCID mice
Description: (§2) The avidity of PLE and APC analogs to localize in tumors was evaluated in several animal models. The PC-3 model represents a human tumor cell line that was used to determine the target (tumor) to non-target ratio of NM404 and NM412 in head to head comparison in order to select a candidate for an initial human pharmacokinetic trial in prostate cancer patients. The MatLyLu (Dunning R3327 rat) model, a rat prostate tumor line, was used specifically to screen 9 specific analogs prior to entering them into control for dosimetry and tumor-bearing animals for determining tumor/background ratios. Finally, the Walker-256 carcinosarcoma model was used for quantitative tissue distribution purposes.
Gamma camera scintigraphy images shown in FIG. 5 directly compare the tumor uptake and body clearance of second generation analog ^125I-NM404 (1) versus its shorter chain, first generation predecessor, ^125I-NM324 (12-(m-iodophenyl)dodecyl phosphocholine) at 1, 2, and 4 days post administration in immune-compromised SCID mice bearing human PC-3 prostate tumor xenografts.
Tumor uptake, however, continued to increase up until day 5 when it reached 18% injected dose per gram of tumor. […] Tumor to background tissue ratios exceeded 4, 6.8, 23, and 9 in blood, liver, muscle, and prostate, respectively, 3 days after injection and continued to improve at 5 and 8 days. Again, although thyroid levels ranged from 26 to 54% injected dose per gram of tissue, these levels are actually quite low and represent an extremely small percentage of the injected dose when the exceedingly small mass of the organ is considered and the data are presented on a percent administered dose per organ basis.

Adenomatous Polyp = test: Imaging and tissue distribution, tumor model; assay type: in vivo, Spontaneous Mouse; settings: Adenoma
Ovarian HTB-77 = test: Imaging and tissue distribution, tumor model; assay type: in vivo, Nude Mouse; settings: Adenocarcinoma
Prostate MatLyLu = test: Gamma camera scintigraphy screen in Dunning R3327 (MAT LyLu) prostate cancer model; assay type: in vivo, Copenhagen rats
Description: as §2
(§3) In order to expedite the screening process and minimize the number of tumor bearing animals utilized in multiple time point tissue distribution studies, new radioiodinated homologs were imaged by gamma camera scintigraphy in the rat Dunning […] (MAT LyLu strain) prostate cancer model. Thus, male Copenhagen rats received a subcutaneous injection of MAT LyLu cells (1×10^6 cells) in the thigh 10-14 days prior to injection of the radioiodinated PLE analogs (30-40 μCi) in 2% Tween-20 solution. Gamma camera images were obtained at multiple time points including 24 and 48 hours post injection. […] Tissue distribution of radioactivity in rats bearing Walker-256 carcinosarcoma was assessed at various time intervals following intravenous administration of the radioiodinated chain length homologs. The first group of compounds that was tested included three alkylphosphocholines: a shorter chain analog with seven carbons NM396 and two analogs with a longer chain length, 13 (NM397, C15 alkyl chain length) and 1 (NM404, C18 alkyl chain length).
In order to decrease liver uptake and prolong the plasma phase, the inventors examined 9 structural analogs of NM324 to identify agents that would display improved tumor-to-background tissue ratios with decreased liver uptake. The new PLE analogs were synthesized and radiolabeled with ^125I for initial image analysis in Copenhagen rats bearing Dunning R3327 prostate tumors. […] NM404 was therefore selected to undergo further imaging and biodistribution analysis in a variety of animal-tumor models.

[3] = test system: Walker-256 carcinosarcoma; test: Tissue distribution of radioactivity in Walker-256 carcinosarcoma model; assay type: in vivo, rats
Description: as §2, §3

Mammary Hyperplasia = test: Imaging and tissue distribution, tumor model; assay type: in vivo, Endogenous Mouse; settings: Alveolar Hyperplasia
[4] = test system: mouse intestinal adenocarcinoma model; test: Therapeutic responses at imaging doses, aggressive intestinal model; assay type: in vivo; settings: 12 days following administration, ^125I-labeled
Text: as §1

Glioma L9 = test: Imaging and tissue distribution, tumor model; assay type: in vivo, Rat
Description: Imaging and tissue distribution studies performed in mouse models aimed at determining the uptake characteristics in a wide variety of tumor models are summarized in Table 1, below.

With `C[N+](C)(C)CCOP(=O)([O-])OCCCCCCCCCCCCCCCCCCc1ccc(I)cc1` [NM404, 18-(p-iodophenyl)-octadecyl phosphocholine] as the molecule, how does the Uptake (TRAMP prostate) read?
The Uptake was “Yes”.

And the “distribution phase half life” value (Blood plasma kinetics)?
Its value is 4.86 h.

And the “elimination half life time in plasma” value (Blood plasma kinetics)?
Its value is “roughly 209 hours”.

What about the Uptake (Mammary SCC and ACC) of the same molecule?
Its Uptake is “Yes”.

What about the Uptake (Cervical) of the same molecule?
The Uptake was “Yes”.

What about the Uptake (Mammary MCF-7) of the same molecule?
The Uptake was “Yes”.

What about the “liver and abdominal radioactivity levels” value [1] of the same molecule?
Its value is “much lower”.

What about the Uptake (Lung A-549 (NSCLC)) of the same molecule?
The Uptake was “Yes”.

And the “tumor to background tissue ratio, blood” value ([2]; 3 days after injection)?
Its value is “exceeded 4”.

And the “tumor to background tissue ratio, liver” value ([2]; 3 days after injection)?
Its value is over 6.8.

And the “tumor to background tissue ratio, muscle” value ([2]; 3 days after injection)?
The value was over 23.

What about the “tumor to background tissue ratio, prostate” value ([2]; 3 days after injection) of the same molecule?
Its value is over 9.

What about the “elimination of radioactivity from normal tissues” value ([2]; 8 day evaluation period) of the same molecule?
Its value is “rapid elimination of radioactivity from all normal tissues”.

What about the Uptake ([2]; Prostate PC-3, Adenocarcinoma) of the same molecule?
The Uptake was “Yes”.

What about the tumor uptake ([2]; SCID mouse prostate and A549 lung cancer tumor models) of the same molecule?
The tumor uptake was “exceeding 25 % of the injected dose”.

What about the tumor uptake ([2]; radioiodinated NM404, day 5 (maximum)) of the same molecule?
Its tumor uptake is 18 % injected dose per gram of tumor.

And the “liver and background radioactivity” value ([2]; scintigraphy at 1, 2 and 4 days, compared with NM324)?
Its value is “much improved”.

And the Uptake (Adenomatous Polyp)?
The Uptake was “No”.

And the Uptake (Ovarian HTB-77)?
The Uptake was “Yes”.

And the “tumor visualization by gamma camera scintigraphy” value (Prostate MatLyLu; 24 and 48 hours after injection)?
The value was “readily visualized”.

What about the liver activity (Prostate MatLyLu; 125I-labeled, initial image screen, compared with NM324) of the same molecule?
Its liver activity is “much lower liver activity”.

What about the Uptake (Prostate MatLyLu; Adenocarcinoma) of the same molecule?
The Uptake was “Yes”.

What about the “duration of tumor retention” value (Prostate MatLyLu; initial screen, FIG. 7) of the same molecule?
The value was “over 20 days”.

What about the “peak radioactivity in the tumor” value ([3]; 48 hours after administration) of the same molecule?
The value was 1.14±0.01 % of ID/g.

And the blood levels ([3]; 120 hours)?
The blood levels was 0.6±0.1 % of ID/g.

And the Uptake ([3]; Carcinosarcoma)?
Its Uptake is “Yes”.

And the “time of peak radioactivity in the tumor” value ([3]; after intravenous administration)?
The value was 48 h.

And the “total radioactivity levels in the thyroid” value ([3]; considering the small mass of the gland)?
The value was “relatively low”.

And the “radioactivity in liver, kidney and duodenum compared with C15 analog 13” value ([3]; rat, in vivo)?
The value was “significantly lower”.

And the Uptake (Mammary Hyperplasia)?
The Uptake was “No”.

What about the “intestinal tumors at dissection” value [4] of the same molecule?
Its value is “most, if not all, of the expected intestinal tumors were gone”.

What about the Uptake (Glioma L9) of the same molecule?
The Uptake was “Yes”.
